Legend:
Type in all cases: in vivo
[1] = system: Erysiphe graminis f. sp. hordei; assay: Erysiphe test (wheat) protective; conditions: 7 days after inoculation
Method: Solvent: 10 parts by weight N-methyl-pyrrolidone
(§1) Emulsifier: 0.6 parts by weight alkylarylpoly-glycolether
(§2) To produce a suitable preparation of active compound, 1-part by weight of active compound is mixed with the stated amounts of solvent and emulsifier, and the concentrate is diluted with water to the desired concentration.
To test for protective activity, young plants are dusted with spores of Erysiphe graminis f. sp. hordei. […]
The plants are placed in a greenhouse at a temperature of about 20° C. and a relative atmospheric humidity of about 80%, in order to promote the development of powdery mildew pustules.
(§3) Evaluation is carried out 7 days after the inoculation.

[2] = system: Erysiphe graminis f.sp.hordei; assay: Erysiphe-test (wheat)/curative; conditions: curative, 200 g/ha, 7 days after inoculation
Method: Solvent: 10 parts by weight of N-methyl-pyrrolidone Emulsifier: 0.6 parts by weight of alkylaryl-polglycolether To produce a suitable preparation of active compound, 1-part by weight of active compound is mixed with the stated amounts of solvent and emulsifier, and the concentrate is diluted with water to the desired concentration. To test for curative activity, young plants are dusted with spores of Erysiphe graminis f.sp.hordei. 48 hours after the inoculation, the plants are sprayed with the preparation of active compound until dew-moist. The plants are placed in a greenhouse at a temperature of about 20° C. and a relative atmospheric humidity of about 80%, in order to promote the development of powdery mildew pustules. Evaluation is carried out 7 days after the inoculation.

Leptosphaeria nodorum [3] = assay: Leptosphaeria nodorum test (wheat)/curative; conditions: curative, 400 g/ha, 10 days after inoculation
Method: Solvent: 10 parts by weight of dimethyl-formamide
Emulsifier: 0.6 parts by weight of alkylaryl polyglycol ether
To produce a suitable preparation of active compound, 1-parts by weight of active compound is mixed with the stated amounts of solvent and emulsifier, and the concentrate is diluted with water to the desired concentration.
To test for curative activity, young plants are sprayed with the preparation of active compound until dew-moist. After the spray coating has dried on, the plants are sprayed with a spore suspension of Leptosphaeria nodorum. The plants remain for 48 hours in an incubation cabin at 20° C. and 100% relative atmospheric humidity.
(§4) The plants are placed in a greenhouse at a temperature of 15° C. and a relative atmospheric humidity of about 80%.
(§5) Evaluation is effected 10 days after the inoculation.

Leptosphaeria nodorum [4] = assay: Leptosphaeria nodorum test (wheat)/protective; conditions: protective, 10 days after inoculation
Method: Solvent: 100 parts by weight of dimethylformamide
Emulsifier: 0.25 parts by weight of alkylaryl polyglycol ether
as §2
To test for protective activity, young plants are sprayed with the preparation of active compound until dew-moist. After the spray coating has dried on, the plants are sprayed with a spore suspension of Leptosphaeria nodorum. The plants remain for 48 hours in an incubation cabin at 20° C. and 100% relative atmospheric humidity.
as §4, §5

[5] = system: Erysiphe graminis f.sp. hordei; assay: Erysiphe test (barley)/protective; conditions: protective, 50 g/ha, 7 days after inoculation
Method: (§6) Solvent: 10 parts by weight N-methyl-pyrrolidon
as §1
To produce a suitable preparation of active compound, 1 part by weight of active compound is mixed with the stated amounts of solvent and emulsifier, and the concentrate is diluted with water to the desired concentration.
To test for protective activity, young plants are sprayed with the preparation of active compound until dew-moist. After the spray coating has dried on, the plants are dusted with spores of Erysiphe graminis f.sp. hordei.
The plants are placed in a greenhouse at a temperature of about 20° C. and a relative atmospheric humidty of about 80%, in order to promote the development of powdery mildew pustules.
as §3

Botrytis cinerea = assay: Botrytis test (bean)/protective; conditions: protective, 3 days after inoculation
Method: After the spray coating has dried on, 2 small pieces-of agar covered with Botrytis cinerea are placed on each leaf. The inoculated plants are placed in a darkened humid chamber at 20° C.
3 days after the inoculation, the size of the infected spots on the leaves is evaluated.

Pyrenophora teres = Pyrenophora teres test (barley)/protective; conditions: protective, 25 g/ha, 7 days after inoculation
Method: as §6, §1, §2
To test for protective activity, young plants are sprayed with the preparation of active compound until dew moist. After the spray coating has dried off, the plants are sprayed with a conidia suspension of Pyrenophora teres. The plants then remain in an incubation cabin at 20° C. and 100% relative atmospheric humidity for 48 hours.
The plants are placed in a greenhouse at a temperature of about 20° C. and a relative atmospheric humidity of about […].
Evaluation is carried out 7 days after inoculation.

CC1(C(=O)Nc2ccc(O)c(Cl)c2Cl)CCCCC1 [(I)]
Degree of effectiveness in % of the untreated control ([1]; 25 g/ha): 30%
Degree of effectiveness in % of the untreated control ([1]; 200 g/ha): 85%
Degree of effectiveness in % of the untreated control [2]: 30%
Degree of activity in % of the untreated control (Leptosphaeria nodorum [3]): 25%
Degree of effectiveness in % of the untreated control (Leptosphaeria nodorum [4]; concentration not given): 0%
Degree of effectiveness in % of the untreated control [5]: 0%
Degree of effectiveness in % of the untreated control (Botrytis cinerea; 5 ppm): 51%
Degree of effectiveness in % of the untreated control (Pyrenophora teres): 33%

CO/C=C(\C(=O)OC)c1ccccc1Oc1cc(Oc2ccccc2C#N)ncn1 [(ηa)]
Degree of effectiveness in % of the untreated control ([1]; 200 g/ha): 79%
Degree of effectiveness in % of the untreated control [5]: 15%

CO/C=C(\C(=O)OC)c1ccccc1Oc1cc(Oc2ccccc2C#N)ncn1 [(ηb)]
Degree of effectiveness in % of the untreated control [2]: 75%

CO/N=C(\C(=O)OC)c1ccccc1COc1ccccc1C [(ηb)]
Degree of effectiveness in % of the untreated control ([1]; 25 g/ha): 85%
Degree of activity in % of the untreated control (Leptosphaeria nodorum [3]): 49%
Degree of effectiveness in % of the untreated control [5]: 85%
Degree of effectiveness in % of the untreated control (Pyrenophora teres): 33%

COC(=O)Nc1nc2ccccc2[nH]1 [Carbendazim, methyl benzimidazole-2-carbamate]
Degree of effectiveness in % of the untreated control (Botrytis cinerea; 5 ppm): 52%

N#Cc1c(Cl)c(Cl)c(Cl)c(C#N)c1Cl [Chlorothalonil, tetrachloro-isophthalo-dinitrile]
Degree of effectiveness in % of the untreated control (Botrytis cinerea; 200 ppm): 37%

CN(C)S(=O)(=O)N(SC(F)(Cl)Cl)c1ccccc1 [Dichlofluanid, dichlofluanid]
Degree of effectiveness in % of the untreated control (Botrytis cinerea; 100 ppm): 32%

O=[N+]([O-])c1cc(C(F)(F)F)c(Cl)c([N+](=O)[O-])c1Nc1ncc(C(F)(F)F)cc1Cl [Fluazinam, fluazinam]
Degree of effectiveness in % of the untreated control (Botrytis cinerea; 5 ppm): 20%

O=C1c2ccccc2C(=O)N1SC(Cl)(Cl)Cl [Phaltan, phaltan]
Degree of effectiveness in % of the untreated control (Botrytis cinerea; 50 ppm): 0%

CC12CC1(C)C(=O)N(c1cc(Cl)cc(Cl)c1)C2=O (stereo not drawn) [Procymidone, procymidone]
Degree of effectiveness in % of the untreated control (Botrytis cinerea; 50 ppm): 44%

Cc1cc(C)nc(Nc2ccccc2)n1 [Pyrimethanil, pyrimethanil]
Degree of effectiveness in % of the untreated control (Botrytis cinerea; 10 ppm): 0%

CC(C)(C)C(O)(CCc1ccc(Cl)cc1)Cn1cncn1 (stereo not drawn) [Tebuconazole]
Degree of effectiveness in % of the untreated control (Leptosphaeria nodorum [4]; spray liquor 25 ppm): 75%

Cc1ccc(N(SC(F)(Cl)Cl)S(=O)(=O)N(C)C)cc1 [Tolylfluanid, tolylfluanid]
Degree of effectiveness in % of the untreated control (Botrytis cinerea; 50 ppm): 32%

Reference: US6365195B2, “Fungicidal active compound combinations” (Bayer Aktiengesellschaft, priority 1993, dated 2002)
